From US10993937B2, “Composition, for preventing or treating dry eye syndrome, containing polyethylene glycol and flavonoid nanocomposite as active ingredient” (INJE UNIVERSITY INDUSTRY-ACADEMIC COOPERATION FOUNDATION, priority 2017, dated 2021)

Key:
[1] = system: NOD.B10.H2^b mouse; test: Corneal fluorescence staining assay (NEI grading); type: in vivo
Method: (§1) Eighty three NOD.B10.H2^b mice (6 weeks old) in total were obtained from the Jackson Laboratory (Bar Harbor, Me., USA) and performed an acclimatization process for 6 to 10 weeks. Mice were kept in a semi-pathogen free (SPF) facility, and feed and water were provided as free feed.
Six mice were used for histopathological analysis as a baseline. Seventy seven mice were injected subcutaneously four times daily for 10 days with 500 μg/200 μL of scopolamine hydrobromide (Sigma-Aldrich) which is a muscarinic receptor blocker. […] On day 10 after scopolamine hydrobromide injection and dryness stress exposure, tear production was measured and a photograph of the cornea was taken.
(§2) On day 10 of DS, 11 mice were used for histopathological analysis. […] All treatments were performed by injecting five times a day and the amount of tear, corneal disorder and fluorescein scores were measured at baseline, day 10 of DS, and day 3, 5, 7, and 10 after treatment. […] In addition, expression of inflammatory factors associated with immunohistochemical staining in the lacrimal gland was evaluated.
Fluorescence staining of the cornea was performed with reference to a previously reported paper (CLAO J. 1995; 21: 221-232). […] Punctate staining was assessed using a standard NEI (national eye institute) grading system with scores of 0 to 3 on each of the five areas of the cornea.

[2] = system: TNF-α; test: Immunohistochemistry of lacrimal gland sections, TNF-α expression; type: in vivo, mouse; details: immunostaining; dryness stress 2.04 times of control
Method: as §1
(§3) Six mice were used for histopathological analysis as a baseline. Seventy seven mice were injected subcutaneously four times daily for 10 days with 500 μg/200 μL of scopolamine hydrobromide (Sigma-Aldrich) which is a muscarinic receptor blocker. At this time, the mice were exposed to desiccation stress (DS) for 10 days, including air ventilation by the fan, with an average ambient humidity of 40% or less for 18 hours daily. On day 10 after scopolamine hydrobromide injection and dryness stress exposure, tear production was measured and a photograph of the cornea was taken.
as §2, with “evaluated. […]” for “evaluated.”

[3] = system: IL-6; test: Immunohistochemistry of lacrimal gland sections, IL-6 expression; type: in vivo, mouse; details: immunostaining; dryness stress 4.02 times of control
Method: as §1, §3
as §2, with “evaluated. […]” for “evaluated.”

[4] = system: NOD.B10.H2^b mouse; test: Analysis of corneal irregularities (white ring, corneal disorder score); type: in vivo; details: for corneal disorder score: 5-point scale
Method: as §1, §3, §2
Corneal abnormality was measured with reference to a previously reported paper (Invest Ophthalmol Vis Sci. 2006; 47:2847-2856). […] Corneal smoothness was assessed by grading the irregularity of the corneal epithelial cells reflected in the white ring of the digital image. The reflected ring was divided into quarters and the corneal disorder score was calculated using the 5-point scale based on the number of distorted branches in the reflected ring: 0, no distortion; 1, a quarter of distortion; 2, two-quarters of distortion; 3, three-quarters of distortion; 4, four-quarters of distortion; 5, severe distortion.

[5] = system: MMP-9; test: Immunohistochemistry of lacrimal gland sections, MMP-9 expression; type: in vivo, mouse; details: compared with the day 10 of DS
Method: as §1, §3
as §2, with “evaluated. […]” for “evaluated.”

[6] = system: NOD.B10.H2^b mouse; test: Density of conjunctival goblet cells (PAS staining); type: in vivo; details: after treatment; control 12.86±0.76, dryness stress 6.19±0.16
Method: as §1, §3
as §2, with “evaluated. […]” for “evaluated.”

[7] = system: ICAM-1; test: Immunohistochemistry of lacrimal gland sections, ICAM-1 expression; type: in vivo, mouse; details: versus day 10 of DS and the vehicle-treated group
Method: as §1, §3
as §2, with “evaluated. […]” for “evaluated.”

[8] = system: VCAM-1; test: Immunohistochemistry of lacrimal gland sections, VCAM-1 expression; type: in vivo, mouse; details: versus day 10 of DS and the vehicle-treated group
Method: as §1, §3
as §2, with “evaluated. […]” for “evaluated.”

[9] = system: IL-17; test: Immunohistochemistry of lacrimal gland sections, IL-17 expression; type: in vivo, mouse; details: immunostaining; dryness stress 15.35 times of control
Method: as §1, §3
as §2, with “evaluated. […]” for “evaluated.”

[10] = system: IL-1β; test: Immunohistochemistry of lacrimal gland sections, IL-1β expression; type: in vivo, mouse; details: immunostaining; dryness stress 3.55 times of control
Method: as §1, §3
as §2, with “evaluated. […]” for “evaluated.”

[11] = system: NOD.B10.H2^b mouse; test: Tear production analysis (phenol red-impregnated cotton threads) in mouse model of dry eye syndrome; type: in vivo; details: for amount of tears: 1% eye drops 5 μL five times a day, mean±SD
Method: as §1, §3
On day 10 of DS, 11 mice were used for histopathological analysis. Sixty six mice were randomly divided into six groups: vehicle (n=11, saline of 5 μL), catechin group (n=11, 1% catechin of 5 μL), CP1 group (n=11, 1% CP1 5 μL), CP5 group (n=11, 1% CP5 5 μL), CP10 group (n=11, 1% CP10 5 μL) and PEG group (n=11, 1% PEG 5 μL). All treatments were performed by injecting five times a day and the amount of tear, corneal disorder and fluorescein scores were measured at baseline, day 10 of DS, and day 3, 5, 7, and 10 after treatment. Hematoxylin and eosin (H&E) and PAS (periodic acid Schiff) staining were performed on the cornea and conjunctiva, respectively. In addition, expression of inflammatory factors associated with immunohistochemical staining in the lacrimal gland was evaluated.
The amount of tears was measured with reference to a previously reported paper (Eye Contact Lens. 2006; 32(6): 272-276). […] The amount of tears was calculated by comparison with a standard curve expressed using a basic solution (1.5 L of 0.9% saline and 5 mL of 5 N sodium hydroxide (NaOH)).

Substance: catechin
- corneal fluorescence staining score ([1]; day 7 after treatment, vehicle 10.00±1.00): 6.67±0.58
- corneal fluorescence staining score ([1]; day 10 after treatment): 3.67±0.58
- expression of TNF-α in the lacrimal gland [2]: no statistically significant difference with day 10 of DS
- expression of IL-6 in the lacrimal gland [3]: no statistically significant difference with day 10 of DS
- day after treatment on which white rings on the corneal surface were observed ([4]; FIG. 2A, microscopic image): 10 days
- corneal disorder score ([4]; day 7 after treatment, vehicle 3.63±0.48): 2.88±0.48
- corneal disorder score ([4]; day 10 after treatment): 2.38±0.47
- expression of MMP-9, effect in words [5]: significantly decreased the MMP-9 expression but did not recover to the control level
- number of conjunctival goblet cells [6]: 9.71±1.25 /0.1 mm^2
- expression of ICAM-1, effect in words [7]: did not show statistically significant difference
- expression of VCAM-1, effect in words [8]: did not show statistically significant difference
- IL-17 expression in the lacrimal gland [9]: significantly decreased IL-17 expression
- expression of IL-1β in the lacrimal gland [10]: no statistically significant difference with day 10 of DS
- amount of tears ([11]; after 3 days of treatment): 0.08 ± 0.03 µL
- amount of tears ([11]; after 5 days of treatment): 0.13 ± 0.01 µL
- days of treatment after which tear production recovered to the baseline level ([11]; baseline 0.16±0.02 μL): 5 days
